Test results as given in patent US10221185B2, “Crystal form of substituted aminopyran derivativek” (Sichuan Haisco Pharmaceutical Co., Ltd., priority 2015, dated 2019).
Each block holds one compound with its values, some of them ahead of it.

What was measured:
Format in all cases: physicochemical
[1] = Stability of crystal forms of Compound A kept dry at room temperature; conditions: Kept dry at room temperature for 14 d
[2] = Chemical stability of Crystal form IV of Compound A (influencing factors: high temperature, light exposure, high humidity)
Description: A sample was investigated under the conditions and sampling time points shown in Table 4 below for influencing factors, and the results are shown in Table 5 below.

[3] = Slurry competition experiments of crystal forms of Compound A at room temperature
Description: 2. Room temperature competition experiment between Crystal form I and Crystal forms II, III, IV of Compound A, examining the stability of the crystal forms in solvents such as water, ethanol, and water:ethanol (1:1) at room temperature, see Table 2 for details.

[4] = High humidity (92.5% RH), unsealed, 10 d
[5] = High humidity (92.5% RH), unsealed, 60 d
[6] = High temperature, unsealed, 40° C., 10 d
[7] = High temperature, unsealed, 40° C., 60 d
[8] = High temperature, unsealed, 60° C., 10 d
[9] = High temperature, unsealed, 60° C., 60 d

Crystal form after transformation [1]: Crystal form II
Stability of crystal form (conclusion in words) [1]: good stability
SMILES: CS(=O)(=O)n1cc2c(n1)CN([C@@H]1C[C@H](N)[C@@H](c3cc(F)ccc3F)O[C@@H]1C(F)(F)F)C2 [Crystal form II, (2R,3S,5R,6S)-2-(2,5-difluorophenyl)-5-(2-(methylsulfonyl)pyrrolo[3,4-c]pyrazol-5(2H,4H,6H)-yl)-6-(trifluoromethyl)tetrahydro-2H-pyran-3-amine]

Crystal form after transformation [1]: Crystal form III
Stability of crystal form (conclusion in words) [1]: good stability
SMILES: CS(=O)(=O)n1cc2c(n1)CN([C@@H]1C[C@H](N)[C@@H](c3cc(F)ccc3F)O[C@@H]1C(F)(F)F)C2 [Crystal form III, (2R,3S,5R,6S)-2-(2,5-difluorophenyl)-5-(2-(methylsulfonyl)pyrrolo[3,4-c]pyrazol-5(2H,4H,6H)-yl)-6-(trifluoromethyl)tetrahydro-2H-pyran-3-amine]

Appearance ([2]; 0 d): Off-white
Moisture ([2]; 0 d): 0.19%
Purity of Compound A ([2]; 0 d): 99.67%
Appearance [2, 4]: Light yellow
Moisture [2, 4]: 0.27%
Purity of Compound A [2, 4]: 99.57%
Appearance [2, 5]: Light yellow
Moisture [2, 5]: 0.20%
Purity of Compound A [2, 5]: 99.28%
Appearance [2, 6]: Light yellow
Moisture [2, 6]: 0.25%
Purity of Compound A [2, 6]: 99.54%
Appearance [2, 7]: Light yellow
Moisture [2, 7]: 0.18%
Purity of Compound A [2, 7]: 99.43%
Appearance [2, 8]: Light yellow
Moisture [2, 8]: 0.36%
Purity of Compound A [2, 8]: 99.48%
Appearance [2, 9]: Light yellow
Moisture [2, 9]: 0.15%
Purity of Compound A [2, 9]: 99.15%
Appearance ([2]; Light exposure, unsealed, 10 d): Off-white
Moisture ([2]; Light exposure, unsealed, 10 d): 0.32%
Purity of Compound A ([2]; Light exposure, unsealed, 10 d): 99.51%
Appearance ([2]; Light exposure, unsealed, 60 d): Off-white
Moisture ([2]; Light exposure, unsealed, 60 d): 0.16%
Purity of Compound A ([2]; Light exposure, unsealed, 60 d): 99.43%
Crystal form after transformation [1]: Crystal form IV
Stability of crystal form (conclusion in words) [1]: good stability
SMILES: CS(=O)(=O)n1cc2c(n1)CN([C@@H]1C[C@H](N)[C@@H](c3cc(F)ccc3F)O[C@@H]1C(F)(F)F)C2 [Crystal form IV of Compound A, (2R,3S,5R,6S)-2-(2,5-difluorophenyl)-5-(2-(methylsulfonyl)-pyrrolo[3,4]pyrazol-5(2H,4H,6H)-yl)-6-(trifluoromethyl)tetrahydro-2H-pyran-3-amine]
Relative stability of crystal forms (conclusion in words) [3]: the most stable crystal form at room temperature
